Measured values from ChEMBL document CHEMBL1149930, “3-Hydroxy-19-nor-17-pregna-1,3,5(10)-triene-21,17-carbolactone as inhibitor of 17-hydroxysteroid dehydrogenase type 2” (Bioorg Med Chem Lett, 1994).

Legend:
[1] = molecular target: T1, 17-beta-hydroxysteroid dehydrogenase type 2 (Homo sapiens, UniProt P37059); assay: Inhibitory activity against human placenta 17-beta-hydroxysteroid dehydrogenase type 2 (17-beta-HSD type 2)
T1 sequence (P37059 whole entry): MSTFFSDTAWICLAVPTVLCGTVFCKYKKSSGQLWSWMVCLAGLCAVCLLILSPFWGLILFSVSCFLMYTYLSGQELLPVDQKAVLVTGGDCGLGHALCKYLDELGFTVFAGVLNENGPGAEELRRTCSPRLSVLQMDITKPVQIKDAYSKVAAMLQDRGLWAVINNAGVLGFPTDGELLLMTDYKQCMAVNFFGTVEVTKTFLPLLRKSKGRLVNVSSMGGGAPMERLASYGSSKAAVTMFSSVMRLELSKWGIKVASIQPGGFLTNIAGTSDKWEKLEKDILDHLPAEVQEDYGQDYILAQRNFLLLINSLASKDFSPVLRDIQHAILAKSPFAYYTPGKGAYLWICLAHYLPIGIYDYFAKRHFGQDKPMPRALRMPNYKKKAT

[2] = molecular target: T1, 17-beta-hydroxysteroid dehydrogenase type 2; assay: Inhibitory constant against human placenta 17-beta-hydroxysteroid dehydrogenase type 2 (17-beta-HSD type 2)

SMILES | IC50 [1] [nM] | Ki [2] [nM]
C[C@]12CC[C@@H]3c4ccc(O)cc4CC[C@H]3[C@@H]1CC[C@@]21CCC(=O)O1 | 270 | 250
C[C@]12CCC3C4=CCC(=O)C=C4CCC3C1CC[C@@]21CCC(=O)O1 (stereo partly drawn) | 1410 | –
